Where “and” joins values, the source holds several entries; their conditions need not be identical. Equal entries are not always repeated. Where two headings read alike, the source gives them in different places.
How the values were obtained:
[1] = Mouse pharmacokinetic analyses (i.v. and oral); assay type: in vivo; details: plasma, iv
Protocol: For PK analysis, mice were administered intravenously or orally with compound formulated in 10% ethanol and 10% Cremophor EL. Compound 13 dosing was also screened with 20% Phosphal IPG, 20% Phosphal MCT, 10% HP-β-CD, and 40% HP-β-CD. Plasma samples were obtained at predefined time points and compound concentrations in plasma were measured by quantitative HPLC–MS/MS using an internal standard. Calibration and quality control samples were prepared using blank plasma from untreated animals. Samples were precipitated with acetonitrile and injected into a HPLC system (Agilent 1200). Separation was performed by gradients of 5 mmol/L ammonium acetate pH 5.0 and acetonitrile with 0.1% formic acid on a Luna C8 reversed-phase column with 2.5 μm particles (Phenomenex). The HPLC was interfaced by ESI operated in positive ionization mode to a triple quadrupole mass spectrometer (6500+ Triple Quad System, SCIEX) operated in multiple reaction monitoring mode. Chromatograms were analyzed with Analyst (SCIEX) and pharmacokinetic parameters were calculated by noncompartmental analysis using proprietary software.

Mcl-1 = target: T1, Mcl-1 (Homo sapiens, UniProt Q07820); assay: TR-FRET binding assay (FITC-Bak peptide competition)
T1 construct: Briefly, a previously reported construct was subcloned into an expression vector (pDEST-HisMBP); MBP (from vector pDEST-HisMBP); made in house; host or cells: Escherichia coli BL21 CodonPlus (DE3) RIL
T1 sequence (Q07820 whole entry): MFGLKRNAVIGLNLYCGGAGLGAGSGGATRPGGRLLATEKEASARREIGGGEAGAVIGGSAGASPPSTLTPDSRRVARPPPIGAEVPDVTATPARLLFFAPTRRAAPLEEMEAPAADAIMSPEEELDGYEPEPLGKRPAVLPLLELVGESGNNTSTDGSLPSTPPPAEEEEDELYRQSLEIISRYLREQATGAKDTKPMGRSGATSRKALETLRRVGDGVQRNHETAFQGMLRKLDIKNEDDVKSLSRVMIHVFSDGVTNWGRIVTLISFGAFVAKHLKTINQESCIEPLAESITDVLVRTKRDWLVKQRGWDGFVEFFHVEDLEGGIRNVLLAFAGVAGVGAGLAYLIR
Source text: Protein preparation was described previously. Briefly, a previously reported construct was subcloned into an expression vector (pDEST-HisMBP) expressed in Escherichia coli BL21 CodonPlus (DE3) RIL (Stratagene) and purified through nickel-column and size-exclusion chromatography sequentially.
Mixtures containing vehicle without compound served as a negative control, while mixtures containing no protein served as a positive control. […] Two or more repeats were obtained and average K i values are reported.

NCI-H929 cells = assay: In vitro proliferation assay (CellTiter-Glo), H929; assay type: cell-based; details: Homo sapiens
Protocol: (§1) NCI-H929, A427, and K562 cell lines were obtained from ATCC. NCI-H929 cells were cultured in RPMI1640 (ATCC-formulated, Catalog No. 30-2001) + 10% fetal calf serum (FCS, GIBCO BRL, Cat. No. 26140) + 0.05 mM mercaptoethanol. A-427 cells were cultured in RPMI1640 (ATCC-formulated, Catalog No. 30-2001) + 10% fetal calf serum (FCS, GIBCO BRL, Cat. No. 26140). K562 cell lines were cultured in Iscove’s Modified Dulbecco Medium (Gibco-formulated, purchased from Thermo-Fisher, Cat. No. 12440-053) + 10% fetal bovine serum (FBS, Sigma-Aldrich, F2442). All cell lines were cultured at 37 °C with 5% CO2 in a humidified incubator and have been regularly tested negatively for mycoplasm contamination.
(§2) Cells were seeded at 750–1500 cells per well (depending on growth kinetics) in 384-well plates (Corning, Catalog No. 3707) or at 3000 cells per well in 96-well plates in the respective growth medium and allowed to settle overnight. Suspension cells were plated immediately before compound addition. Adherent cell lines were incubated overnight at 37 °C in a tissue culture incubator prior to compound addition. Compounds were added in triplicates using an HP D300e Digital Dispenser (Hewlett-Packard) or manually at the concentrations indicated and total volumes were normalized using DMSO backfill, with final DMSO concentration of 0.5%. Control wells were treated with DMSO only. Following incubation for 72 or 96 h, a Cell Titer-Glo assay was conducted following the manufacturer recommendations (Promega, G9243) and luminescence was measured using a Victor X5 (PerkinElmer) or a Cytation 3 (Biotek) plate reader. % Viability was defined as relative luminescence units (RLU) of each well divided by the RLU of cells on day 0. Four parameter sigmoidal dose–response curves were generated and IC50 values were determined using XLFit (IDBS) software (eq 205) or in-house software. Drug combination experiments were performed in 96-well or 384-well format and drug synergy was determined using the BLISS model (PMID: 26171228).

A427 cells = assay: In vitro proliferation assay (CellTiter-Glo), A427; assay type: cell-based; details: Homo sapiens, A-427
Protocol: as §1, §2

K562 cells = assay: In vitro proliferation counterscreen, Mcl-1 insensitive K562; assay type: cell-based; details: Homo sapiens; Mcl-1 insensitive K562; top concentration tested 12.5 µM
Protocol: NCI-H929, A427, and K562 cell lines were obtained from ATCC.
Suspension cells were plated immediately before compound addition. Adherent cell lines were incubated overnight at 37 °C in a tissue culture incubator prior to compound addition. Compounds were added in triplicates using an HP D300e Digital Dispenser (Hewlett-Packard) or manually at the concentrations indicated and total volumes were normalized using DMSO backfill, with final DMSO concentration of 0.5%. Control wells were treated with DMSO only. Following incubation for 72 or 96 h, a Cell Titer-Glo assay was conducted following the manufacturer recommendations (Promega, G9243) and luminescence was measured using a Victor X5 (PerkinElmer) or a Cytation 3 (Biotek) plate reader. % Viability was defined as relative luminescence units (RLU) of each well divided by the RLU of cells on day 0.

[2] = tested on: caspase 3/7 in H929 cells; assay: Caspase 3/7 induction assay (Caspase-Glo), H929; assay type: cell-based; details: compound treatment for 3 h; for EC50: Homo sapiens, NCI-H929
Protocol: (§3) Cells were treated with a 10-point compound titration and incubated at 37 °C for 3 h.

[3] = tested on: caspase 3/7 in A427 cells; assay: Caspase 3/7 induction assay (Caspase-Glo), A427; assay type: cell-based; details: compound treatment for 3 h; for EC50: Homo sapiens, A-427
Protocol: as §3

[4] = tested on: caspase 3/7 in K562 cells; assay: Caspase 3/7 induction assay (Caspase-Glo), K562; assay type: cell-based; details: compound treatment for 3 h; for EC50: Homo sapiens, K562
Protocol: as §3

[5] = dosed at 20 mg/kg, read-out: i.v. mouse CL
[6] = supplementary CSV, unit not given (Table 1: 20 mg/kg, 14 and 16 at 10 mg/kg), read-out: CL
[7] = in the presence of 1% fetal bovine serum, average of at least n = 2, read-out: TRFRET, Mcl-1 Ki
[8] = supplementary CSV, unit inferred, read-out: Ki TRFRET
[9] = supplementary CSV, unit inferred
[10] = H929 cell line, average of at least n = 2, triplicate
[11] = A427 cell line, average of at least n = 2, triplicate
[12] = dosed at 10 mg/kg, read-out: i.v. mouse CL

Row | SMILES | clearance [1, 5] | clearance [1, 6] | Ki (Mcl-1; [7]) | Ki (Mcl-1; [8]) | GI50 (NCI-H929 cells; [9]) | GI50 (A427 cells; [9]) | GI50 (K562 cells) | GI50 (NCI-H929 cells; [10]) | GI50 (A427 cells; [11]) | EC50 [2] | H929 Caspase 3/7 maximum activity, fold over vehicle (FoV) [2] | EC50 [3] | A427 Caspase 3/7 fold over vehicle (FoV) [3] | EC50 [4] | K562 Caspase 3/7 fold over vehicle (FoV) [4] | clearance [1, 12]
1 | COc1cc(N2C[C@@H](C)n3c(c(CCCOc4cc(C)c(Cl)c(C)c4)c4ccc(Cl)c(-c5c(C)nn(C)c5C)c43)C2=O)c2c(cc(C(=O)O)n2C)c1OC [Compound 9] | 70 mL/min/kg | 70 mL/min/kg |  |  |  |  |  |  |  |  |  |  |  |  |  | 
2 | COc1cc2c3c(cc(C(=O)O)n3CCCOCc3c(c(C)nn3C)-c3c(Cl)ccc4c(CCCOc5cc(C)c(Cl)c(C)c5)c5n(c34)[C@H](C)CN2C5=O)c1OC [Compound 11, (2^63^4 S a ,1^72^2 R a ,2^4 R)-2^7-Chloro-2^10-(3-(4-chloro-3,5-dimethylphenoxy)propyl)-1^4,1^5-dimethoxy-2^4,3^1,3^3-trimethyl-2^1-oxo-2^1,2^2,2^3,2^4-tetrahydro-1^1 H,3^1 H-5-oxa-2(2,6)-pyrazino[1,2-a]indola-1(7,1)-indola-3(4,5)-pyrazolacyclooctaphane-1^2-carboxylic Acid] |  |  | 0.08 ± 0.01 nM | 0.04 nM | 24 nM | 64 nM | > 12500 nM |  |  |  |  |  |  |  |  | 
3 | COc1cc2c3c(cc(C(=O)O)n3CCCCOCc3nn(C)c(C)c3-c3c(Cl)ccc4c(CCCOc5cc(C)c(Cl)c(C)c5)c5n(c34)[C@H](C)CN2C5=O)c1OC [Compound 12, (2^63^4 S a ,1^72^2 R a ,24R)-2^7-Chloro-2^10-(3-(4-chloro-3,5-dimethylphenoxy)propyl)-1^4,1^5-dimethoxy-2^4,3^1,3^5-trimethyl-2^1-oxo-2^1,2^2,2^3,2^4-tetrahydro-1^1 H,3^1 H-5-oxa-2(2,6)-pyrazino[1,2-a]indola-1(7,1)-indola-3(4,3)-pyrazolacyclononaphane-1^2-carboxylic Acid] |  |  |  | 0.12 nM | 39 nM | 87 nM | > 7800 nM |  |  |  |  |  |  |  |  | 
4 | Cc1cc2c3c(c1)cc(C(=O)O)n3CCCOCc1nn(C)cc1-c1c(Cl)ccc3c(CCCOc4cc(C)c(Cl)c(C)c4)c4n(c13)[C@H](C)CN2C4=O [Compound 14, (2^63^4 S a ,1^72^2 R a ,2^4 R)-2^7-Chloro-2^10-(3-(4-chloro-3,5-dimethylphenoxy)propyl)-1^5,2^4,3^1-trimethyl-2^1-oxo-2^1,2^2,2^3,2^4-tetrahydro-1^1 H,3^1 H-5-oxa-2(2,6)-pyrazino[1,2-a]indola-1(7,1)-indola-3(4,3)-pyrazolacyclooctaphane-1^2-carboxylic Acid] |  | 8.4 mL/min/kg | < 0.08 nM | 0.03 nM |  |  | > 10200 nM | 64 ± 17 nM | 195 ± 14 nM | 45 nM | 17 fold | 35 nM | 16 fold | > 3120 nM | 1.3 fold | 8.4 mL/min/kg
5 | COc1cc2c3c(c1)cc(C(=O)O)n3CCCOCc1nn(C)cc1-c1c(Cl)ccc3c(CCCOc4cc(C)c(Cl)c(C)c4)c4n(c13)[C@H](C)CN2C4=O [Compound 15, (2^63^4 S a ,1^72^2 R a ,2^4 R)-2^7-Chloro-2^10-(3-(4-chloro-3,5-dimethylphenoxy)propyl)-1^5-methoxy-2^4,3^1-dimethyl-2^1-oxo-2^1,2^2,2^3,2^4-tetrahydro-1^1 H,3^1 H-5-oxa-2(2,6)-pyrazino[1,2-a]indola-1(7,1)-indola-3(4,3)-pyrazolacyclooctaphane-1^2-carboxylic Acid] |  |  | < 0.08 nM | 0.04 nM |  |  | > 12500 nM | 38 ± 11 nM | 60 ± 24 nM | 43 nM | 17 fold | 34 nM | 15 fold | > 3120 nM | 1.3 fold | 
6 | COc1ccc2c3c1cc(C(=O)O)n3CCCOCc1nn(C)cc1-c1c(Cl)ccc3c(CCCOc4cc(C)c(Cl)c(C)c4)c4n(c13)[C@H](C)CN2C4=O [Compound 16, (2^63^4 S a ,1^72^2 R a ,2^4 R)-2^7-Chloro-2^10-(3-(4-chloro-3,5-dimethylphenoxy)propyl)-1^4-methoxy-2^4,3^1-dimethyl-2^1-oxo-2^1,2^2,2^3,2^4-tetrahydro-1^1 H,3^1 H-5-oxa-2(2,6)-pyrazino[1,2-a]indola-1(7,1)-indola-3(4,3)-pyrazolacyclooctaphane-1^2-carboxylic Acid] |  | 17.3 mL/min/kg | < 0.08 nM |  |  |  | > 12500 nM | 27 ± 3 nM | 45 ± 17 nM | 16 nM | 16 fold and 16 (16) fold | 24 nM | 15 fold | > 3120 nM | 1.3 fold | 17.3 mL/min/kg
7 | COc1cc2c3c(cc(C(=O)O)n3CCCOCc3nn(C)cc3-c3cccc4c(CCCOc5cc(C)c(Cl)c(C)c5)c5n(c34)[C@H](C)CN2C5=O)c1OC [Compound 23, (2^63^4 R a ,1^72^2 R a ,2^4 R)-2^10-(3-(4-Chloro-3,5-dimethylphenoxy)propyl)-1^4,1^5-dimethoxy-2^4,3^1-dimethyl-2^1-oxo-2^1,2^2,2^3,2^4-tetrahydro-1^1 H,3^1 H-5-oxa-2(2,6)-pyrazino[1,2-a]indola-1(7,1)-indola-3(4,3)-pyrazolacyclooctaphane-1^2-carboxylic Acid] |  |  | < 0.08 nM | < 0.02 nM |  |  | > 12500 nM | 15 ± 4 nM | 32 ± 4 nM |  |  |  |  |  |  | 
8 | COc1c(OCC2CCOCC2)cc(N2C[C@@H](C)n3c(c(CCCOc4cc(C)c(Cl)c(C)c4)c4ccc(Cl)c(-c5c(C)nc(C)nc5C)c43)C2=O)c2c1cc(C(=O)N(C)C)n2C [Compound 24, (R)-7-(7-chloro-10-(3-(4-chloro-3,5-dimethylphenoxy)propyl)-4-methyl-1-oxo-6-(2,4,6-trimethylpyrimidin-5-yl)-3,4-dihydropyrazino[1,2-a]indol-2(1H)-yl)-4-methoxy-N,N,1-trimethyl-5-((tetrahydro-2H-pyran-4-yl)methoxy)-1H-indole-2-carboxamide] | 2 mL/min/kg | 2 mL/min/kg | 105 ± 8 nM |  |  |  | > 12500 nM | 1100 ± 380 nM | 3600 ± 140 nM |  |  |  |  |  |  | 

Reference: paper PMC12434668 (Journal of Medicinal Chemistry, 2025)
